Source: US9975917B1, “Pentacyclic triterpenoidal derivatives” (KING SAUD UNIVERSITY, priority 2017, dated 2018)

Experiments:
5-Lipoxygenase [1] = target: T1, 5-Lipoxygenase (Rattus norvegicus, UniProt P12527); assay: 5-LOX product formation from 20 μM exogenous substrate in 105,000 g supernatants of rat PMNL, cell-free (System B); format: biochemical; settings: cell-free 105,000 g supernatant of rat PMNL, 20 μM arachidonic acid, 1 mM ATP, 1.8 mM CaCl2, 37° C. 5 min; means±standard deviation, n=6
T1 construct: from 20 μM exogenous substrate in 105.000 g supernatants of rat PMNL (System B); from tissue; host or cells: 105,000 g supernatant of sonicated peritoneal PMNL of Wistar rats
T1 sequence (P12527 1-673): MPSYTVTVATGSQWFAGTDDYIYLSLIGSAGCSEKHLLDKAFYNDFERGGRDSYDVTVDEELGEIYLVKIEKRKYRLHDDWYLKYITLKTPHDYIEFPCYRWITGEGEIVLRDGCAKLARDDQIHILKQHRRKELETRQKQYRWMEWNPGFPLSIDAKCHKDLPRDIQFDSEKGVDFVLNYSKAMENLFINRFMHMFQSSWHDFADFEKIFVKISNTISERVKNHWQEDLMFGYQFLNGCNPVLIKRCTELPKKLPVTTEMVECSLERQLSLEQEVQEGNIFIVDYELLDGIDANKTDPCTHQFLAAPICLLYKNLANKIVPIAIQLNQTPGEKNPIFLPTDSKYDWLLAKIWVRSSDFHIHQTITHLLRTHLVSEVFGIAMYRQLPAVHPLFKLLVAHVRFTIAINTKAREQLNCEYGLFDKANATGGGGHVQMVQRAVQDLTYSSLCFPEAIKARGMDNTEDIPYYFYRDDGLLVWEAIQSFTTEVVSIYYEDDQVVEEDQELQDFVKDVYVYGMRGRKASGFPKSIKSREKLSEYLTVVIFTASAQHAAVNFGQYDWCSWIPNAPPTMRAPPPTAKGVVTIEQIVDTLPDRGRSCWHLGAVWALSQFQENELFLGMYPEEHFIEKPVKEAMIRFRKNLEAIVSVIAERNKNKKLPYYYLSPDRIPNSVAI
Description: (§1) Glycogen-elicited rat peritoneal PMNL were collected 4 hours after the injection of a glycogen solution (5%) in Dulbecco's phosphate-buffered saline (PBS) into the peritoneum of 300-350 g Wistar rats. The washed cells (>90% PMNL) were lysed at 2×10^7 cells mL^−1 by sonication (3×5 s, digital Sonifier) in PBS containing 1 mm EDTA, and were subjected to sequential centrifugation at 10,000 and 105,000 g for 10 and 60 min (4° C.), respectively. Freshly obtained PMNL suspensions and aliquots of the 105,000 g supernatants were assayed for 5-lipoxygenase activity.
(§2) For 5-lipoxygenase product formation from endogenous arachidonic acid, glycogen-elicited rat peritoneal PMNL (1×10^7 cells) were stimulated at 37° C. for 5 min by ionophore A23187 and Ca^2+. The 5-lipoxygenase activity in the cell-free system was tested in aliquots (corresponding to 1×10^7 cells) of the 105,000 g supernatant fraction of rat PMNL in the presence of 1 mm ATP, 1.8 mM CaCl2, 1 mM EDTA, and 20 μM arachidonic acid at 37° C. for 5 min. In both intact cells and cell-free tests, the incubations were terminated by cooling to 4° C. and acidification to pH of 3 with formic acid. For inhibition studies, the test compounds dissolved in dimethyl sulphoxide (DMSO) were added 5 min prior to initiation.
(§3) Inhibitors and non-inhibitory pentacyclic triterpenes were added simultaneously. All incubations, including controls, were carried out in the presence of 0.5% DMSO. The 5-lipoxygenase products were quantified after the addition of 170 ng PGB2 as an internal standard by extraction, with RP-HPLC separation and ultraviolet detection of products. With intact rat PMNL and the 105,000 g supernatant fraction the main products from arachidonic acid of 5 min incubations were leukotriene B4 (LTB4), 6-trans-LTB4, 12-epi-6-trans-LTB4 and 5-HETE along with negligible amounts of 5(S), 12(S)-diHETE.
(§4) FIG. 2 is a graph showing the effects of the pentacyclic triterpenoidal derivatives on 5-Lox product formation for System A. FIG. 3 is a graph showing the effects of the pentacyclic triterpenoidal derivatives on 5-Lox product formation for System B. Inhibition concentrations (IC50) of the biological effect of each of the compounds were determined after logit-log transformation of the data for each experiment. Data of independent observations (n=6) are shown as means±standard deviation.

5-Lipoxygenase [2] = target: T1, 5-Lipoxygenase; assay: 5-LOX product formation from endogenous arachidonic acid in ionophore-stimulated intact rat PMNL (System A); format: cell-based; settings: ionophore A23187 and Ca2+, 37° C. 5 min, means±standard deviation, n=6
Description: as §1, §2, §3, §4

SMILES	IC50 (5-Lipoxygenase [1]) [µM]	IC50 (5-Lipoxygenase [2]) [µM]	melting point [°C]
CC1CCC2(C)CCC3(C)C(=CC(=O)C4C5(C)CCC(O)C(C)(C(=O)O)C5CCC43C)C2C1C (stereo not drawn) [11-keto-β-boswellic acid/1, 11-keto-β-boswellic acid, reference compound]	14.6	2.8	–
CC(=O)O[C@@H]1CC[C@@]2(C)[C@@H](CC[C@]3(C)[C@@H]2C(=O)C=C2[C@@H]4[C@@H](C)[C@H](C)CC[C@]4(C)CC[C@]23C)[C@@]1(C)C(=O)O [AKBA, Acetyl-11-keto-β-boswellic acid, reference compound]	7	1.5	–
CC1CCC2(C)CCC3(C)C(=CC(=O)C4C5(C)CCC(=O)C(C)(C(=O)Cl)C5CCC43C)C2C1C (stereo not drawn) [Compound 3, 3,11-dioxo-urs-12-en-24β-acid chloride]	0.34	0.19	–
CC1CCC2(C)CCC3(C)C(=CC(=O)C4C5(C)CCC(=O)C(C)(C(=O)c6ccccc6)C5CCC43C)C2C1C (centres unmarked) [Compound 4, 3,11-dioxo-24(phenyl)-urs-12-en-24-one]	0.098	0.078	300
CC1CCC2(C)CCC3(C)C(=CC(=O)C4C5(C)CCC(=O)C(C)(c6ccccc6)C5CCC43C)C2C1C (centres unmarked) [Compound 5, 24-norurs-12-en-24(phenyl)-3,11-dione]	0.28	0.17	256
CC1CCC2(C)CCC3(C)C(=CC(=O)C4C5(C)C=CC(=O)C(C)(C(=O)c6ccccc6)C5CCC43C)C2C1C (centres unmarked) [Compound 6, 3,11-dioxo-24(Phenyl)-urs-1,12-diene-24-one]	0.044	0.021	–
CC1CCC2(C)CCC3(C)C(=CC(=O)C4C5(C)C=CC(=O)C(C)(c6ccccc6)C5CCC43C)C2C1C (centres unmarked) [Compound 7, 24-nor-urs-1,12-diene-24(phenyl)-3,11-dione]	0.24	0.12	267
